Experimental data as given in US20050019825A9, “Common ligand mimics: pseudothiohydantoins” (priority 2002, published 2005).
Like-named read-outs stand apart in the source and are kept apart here.

Key:
[1] = molecular target: inosine-5′-monophosphate dehydrogenase (IMPDH); assay: IMPDH kinetic assay, spectrophotometric reduction of NAD+ (340 nm); assay type: biochemical; conditions: for IC50: common ligand mimics, Examples 23/24
Protocol: For IMPDH analysis, the compounds were screened using a kinetic protocol that spectrophotometrically evaluates reduction of NAD+.
(§1) Stock solutions of each of the reagents were prepared in the following concentrations. Dilutions of the stock solutions were prepared prior to running the assay in the concentrations indicated below.
The IMPDH reaction was monitored at 340 nm prior to and after addition of the inhibitor to detect background reaction with the inhibitor. Solutions of 100 μl of the inhibitors in DMSO were prepared to provide a final DMSO concentration of 5% of the total assay volume. These solutions were incubated for 6 minutes at 37° C. in a 992 μl of a solution containing 0.1 M Tris-HCl, pH 8.0, 0.25 M KCl, 0.3% glycerol, 30 μM NAD+, and 600 μM IMP (inosine monophosphate). The reaction was then initiated with 8 μl of IMPDH (0.75 μg/ml). After the enzyme was added, the solution was mixed for 20 seconds, and the reaction was run for 10 minutes. After a 50 second lag, the samples were read in a Cary spectrophotometer at 340 nm. Reading of the samples was continued until 300 seconds. Cuvette #1 contained the control reaction (no inhibitor), and cuvette #2 contained the positive control reaction in which Cibacron Blue was substituted for inhibitor. The substrate was kept at a level at least 10 times the Km.

[2] = molecular target: glyceraldehyde-3-phosphate dehydrogenase (GAPDH) (Escherichia coli, UniProt P0A9B2); assay: GAPDH kinetic assay, spectrophotometric reduction of NAD+ (340 nm); assay type: biochemical, E. coli; conditions: for inhibition of GAPDH (in words): Example 24 (FIG. 6)
Chain of glyceraldehyde-3-phosphate dehydrogenase (GAPDH) (P0A9B2 whole entry): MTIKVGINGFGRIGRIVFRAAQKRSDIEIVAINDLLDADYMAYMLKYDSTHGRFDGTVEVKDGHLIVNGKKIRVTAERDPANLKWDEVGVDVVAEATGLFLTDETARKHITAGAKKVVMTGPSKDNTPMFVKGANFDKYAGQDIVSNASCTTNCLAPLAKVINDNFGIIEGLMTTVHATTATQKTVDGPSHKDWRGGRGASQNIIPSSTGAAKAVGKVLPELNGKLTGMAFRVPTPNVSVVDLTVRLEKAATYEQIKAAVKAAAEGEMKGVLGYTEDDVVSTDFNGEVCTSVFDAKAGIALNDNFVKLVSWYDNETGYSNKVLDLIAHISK
Protocol: For GAPDH analysis, the compounds were screened using a kinetic protocol that spectrophotometrically evaluates reduction of NAD+.
as §1
The GAPDH reaction was monitored at 340 nm prior to and after addition of the inhibitor to detect background reaction with the inhibitor. Solutions of 100 μl of the inhibitors incubated for 6 minutes at 25° C. in a 990 μl of a solution containing 125 mM triethanolamine, pH 7.5, 145 μM glyceraldehyde 3-phosphate (GAP), 0.211 mM NAD, 5 mM sodium arsenate, and 3 mM β-metcaptoethanol (2-BME). The reaction was then initiated with 10 μl of E. coli GAPDH (1:200 dilution of 1.0 mg/ml). After the enzyme was added, the solution was mixed for 20 seconds, and the reaction was run for 10minutes. After a 50 second lag, the samples were read in a Cary spectrophotometer at 340 nm. Reading of the samples was continued until 300 seconds. The final concentration of DMSO in a cuvette was about 5% of the total assay volume. Cuvette #1 contained the control reaction (no inhibitor).
GAP for use in this experiment was deprotected from the diethyl acetal in the following manner. Water was boiled in recrystallizing dish. Dowex (1.5 mg) and GAP (200 mg; SIGMA G-5376) were weighed and placed in a 15 ml conical tube. The Dowex and GAP were resuspended in 2 ml dH2O, followed by shaking of the tube until the GAP dissolved. The tube was then immersed, while shaking, in the boiling water for 3 minutes. Next, the tube was placed in an ice bath to cool for 5 minutes. As the sample cooled, a resin settled to the bottom of the test tube, allowing removal of the supernatant with a pasteur pipette. The supernatant was filtered through a 0.45 or 0.2 μM cellulose acetate syringe filter.
The filtered supernatant was retained, and another 1 ml of dH2O was added to the resin tube. The tube was then shaken and centrifuged for 5 minutes at 3,000 rpm. The supernatant was again removed with a pasteur pipette and passed through a 0.45 or 0.2 μM cellulose acetate syringe filter. The two supernatant aliquots were then pooled to provide a total GAP concentration of about 50 mM. The GAP was then divided into 100 μl aliquots and stored at −20° C. until use.

[3] = molecular target: dihydrofolate reductase (DHFR) (UniProt P00374); assay: DHFR kinetic assay, spectrophotometric oxidation of NADH (340 nm); assay type: biochemical
Chain of dihydrofolate reductase (DHFR) (P00374 whole entry): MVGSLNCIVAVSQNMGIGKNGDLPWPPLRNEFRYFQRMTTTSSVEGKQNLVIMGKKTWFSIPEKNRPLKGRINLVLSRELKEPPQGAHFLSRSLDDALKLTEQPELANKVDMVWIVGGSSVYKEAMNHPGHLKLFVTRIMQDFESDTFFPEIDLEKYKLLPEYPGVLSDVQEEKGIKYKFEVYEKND
Protocol: For DHFR analysis, the compounds were screened using a kinetic protocol that spectrophotometrically evaluates oxidation of NADH.
Stock solutions of each of the reagents were prepared in the following concentrations. Dilutions of the stock solutions were prepared prior to running the assay in the concentrations indicated below. H2 folate was dissolved in DMSO to about 10 mM and then diluted with water to a concentration of 0.1 mM.
The DHFR reaction was monitored at 340 nm prior to and after addition of the inhibitor to detect background reaction with the inhibitor. Solutions of 100 μl of the inhibitors in DMSO were prepared to provide a final DMSO concentration of 5% of the total assay volume. These solutions were incubated for 6 minutes at 25° C. in a 992 μl of a solution containing 0.1 M Tris-HCl, pH 7.0, 150 mM KCl, 5 μM H2 folate, and 52 μM NADH. The oxidation reaction was then initiated with 8 μl of DHFR (0.047 mg/ml). After the enzyme was added, the solution was mixed for 20 seconds, and the reaction was run for 10 minutes. After a 50 second lag, the samples were read in a Cary spectrophotometer at 340 nm. Reading of the samples was continued until 300 seconds. Cuvette #1 always contained the control reaction (no inhibitor), and cuvette #2 always contained the positive control reaction in which Cibacron Blue at 3 μM was substituted for inhibitor to yield 50 to 70% inhibition. The substrate was kept at a level at least 10 times the Km.

[4] = common ligand mimics, Examples 23/24; read-out: IC50 for DHFR
[5] = read-out: IC50 for DHFR; common ligand mimics, Examples 23/24

Q: Which results are given for `N=C1NC(=O)C(=Cc2ccc(C(=O)O)cc2)S1` [4-(2-imino-4-oxo-thiazolidin-5-ylidenemethyl)-benzoic acid]?
A: IC50 [1]: > 40 µM; inhibition of GAPDH (in words) [2]: no inhibition; IC50 ([2]; common ligand mimics, Examples 23/24, E. coli GAPDH, read-out: IC50 for GAPDH): > 100 µM; IC50 [3, 4]: > 20 µM

Q: `COc1cc(O)ccc1C=C1SC(=N)NC1=O` [5-(4-hydroxy-2-methoxy-benzylidene)-2-imino-thiazolidin-4-one] was tested. Which “inhibition of IMPDH (in words)” value ([1]; Example 24 (FIG. 6)) did it give?
A: no inhibition

Q: And the “inhibition of GAPDH (in words)” value [2]?
A: no inhibition

Q: What about the IC50 [3, 4] of the same compound?
A: > 100 µM

Q: `COc1cc(C=C2SC(N)=NC2=O)ccc1O` [5-(4-hydroxy-3-methoxy-benzylidene)-2-imino-thiazolidin-4-one] was tested. Which IC50 [1] did it give?
A: > 100 µM

Q: And the IC50 [3, 5]?
A: > 100 µM

Q: `N=C1NC(=O)C(=Cc2ccc(O)c([N+](=O)[O-])c2)S1` [5-(4-hydroxy-3-nitro-benzylidene)-2-imino-thiazolidin-4-one] was tested. Which IC50 [1] did it give?
A: > 75 µM

Q: What about the IC50 [2] of the same compound?
A: 153 µM

Q: And the IC50 [3, 5]?
A: > 75 µM
